As a reminder, the pIC50 is the IC50 on a negative log10 scale, so that one unit is a factor of ten.

Molecules are shown by their SMILES. pIC50: −log10 of the molar value. Read-outs that look alike come from different tables or passages of the source.

This assay concerns the target MAT2A (Homo sapiens (Human), UniProt P31153). The assay is described as follows: MAT2A biochemical test (inorganic phosphate colorimetric, PiColorLock). Conditions: read-out: MAT2A inhibitory Activity IC50. An excerpt: Test Example 1. Biochemical Test
The brief introduction of the test principle: L-methionine and ATP can be converted into SAM, inorganic phosphate, and inorganic diphosphate under the catalysis of MAT2A enzymes. The content of inorganic phosphate in the sample can be quantitatively determined by adding a developer such as ammonium molybdate or the like to the enzymatic reaction mixture, thereby reflecting the enzymatic activity of MAT2A.
Reference: The experiment referred to the method disclosed in patent WO2018045071.
Material: MAT2A screening kits were purchased from BPS bioscience (U.S.); 384-well plates were purchased from Corning Company (U.S.). • 1. MAT2A protein (Pharmaron Beijing Co., Ltd.); • 2. L-methionine (Sigma #M9625-5G) • 3. ATP (Sigma #A7699-1G) • 4. KCl (Sigma #60142-500ML-F) • 5. Tris (Sigma #T2663-1L) • 6. MgCl2 (Sigma #M1028) • 7. EDTA (Invitrogen #AM9260G) • 8. BSA (Sangon Biotech #A500023-0100) • 9. PiColorLock (abcam #ab270004)
Detection method: In the experimental group, the test compound was dissolved in DMSO, diluted to a final concentration of 10 μM using Echo, and diluted 3-fold. 80 nL of the dilution was transferred to a 384-well plate.
The experimental buffer (50 mM Tris, 50 mM KCl, 15 mM MgCl2, 100 μM EDTA, 0.005% BSA) was prepared. The MAT2A protein was diluted with the experimental buffer (at final concentration of […]). 40 μL of 2×MAT2A solution was added to the 384-well plate. The plate was centrifuged at 1000 rpm for 1 min and incubated at room temperature for 120 min.
L-methionine and ATP (the final concentration of L-methionine was […] and the final concentration of ATP was 400 μM) were diluted with the experimental buffer. 40 μL of 2×L-methionine and ATP solution was added to initiate the reaction. The plate was centrifuged at 1000 rpm for 1 min and incubated at room temperature for 90 min.
The PiColorLock™ reaction catalyst was mixed with the PiColorLock™ buffer at a ratio of 1:100 according to the instructions. 20 μL was added to each well, and the plate was shaken for 30 s. 8 μL stabilizing reagent was added, and the plate was shaken for 30 s. The signal values were measured after 30 min of incubation at room temperature.
A negative control group and a positive control group were respectively used as Bottom and Top. The negative control group was not added with MAT2A protein, and other operations were consistent with those of the experimental group. The positive control group was not added with the test compound, only added with DMSO in the same volume, and other operations were consistent with those of the experimental group.
The % Compound inhibition was calculated and fitted to give the IC50 of the compound.
% Compound inhibition=1-100%×(Signal−Bottom)/(Top−Bottom).
Signal referred to the signal value of the experimental group, Bottom referred to the average signal value of the negative control group, and Top referred to the average signal value of the positive control group.
Under the condition of this experiment, the inhibitory effect of the test compound on MAT2A can be expressed as the IC50 of the inhibition on the phosphate production level during the enzymatic reaction.

Sequence of MAT2A (P31153 whole entry): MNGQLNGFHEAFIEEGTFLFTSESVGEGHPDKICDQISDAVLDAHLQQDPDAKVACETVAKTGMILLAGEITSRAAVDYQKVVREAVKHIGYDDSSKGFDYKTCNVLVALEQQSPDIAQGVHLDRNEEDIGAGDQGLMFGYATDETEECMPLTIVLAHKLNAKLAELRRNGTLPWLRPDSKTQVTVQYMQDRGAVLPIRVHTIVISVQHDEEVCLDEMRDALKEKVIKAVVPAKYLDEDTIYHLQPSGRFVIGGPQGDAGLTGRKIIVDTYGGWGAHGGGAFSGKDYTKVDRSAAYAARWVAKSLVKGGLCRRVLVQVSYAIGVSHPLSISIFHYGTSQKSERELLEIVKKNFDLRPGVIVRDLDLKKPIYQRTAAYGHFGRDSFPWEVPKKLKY

Take `Cn1cnc2c(=O)n(-c3cccnc3C3CC3)c3cc(C(F)(F)F)ccc3c21` (atropisomer, axis not shown) [Compound 48, 5-(2-cyclopropylpyridin-3-yl)-1-methyl-7-(trifluoromethyl)-1,5-dihydro-4H-imidazo[4,5-c]quinolin-4-one]: the pIC50 is more than 7.00 (class symbols) and 7.44 (numeric values).

Consider `Cn1cnc2c(=O)n(-c3ccccc3C(F)(F)F)c3nc(C(F)(F)F)ccc3c21` (single isomer, unassigned) [Compound 57-P2, 1-methyl-7-(trifluoromethyl)-5-(2-(trifluoromethyl)phenyl)-1,5-dihydro-4H-imidazo[4,5-c][1,8]naphthyridin-4-one], for which the negative-log IC50 (pIC50) runs as follows: (class symbols) more than 7.00; (numeric values) 7.38. As for `Cn1cnc2c(=O)n(-c3ccc(OC(F)F)cc3Cl)c3nc(C(F)(F)F)ccc3c21` (single isomer, unassigned) [Compound 58-P2, 5-(2-chloro-4-(difluoromethoxy)phenyl)-1-methyl-7-(trifluoromethyl)-1,5-dihydro-4H-imidazo[4,5-c][1,8]naphthyridin-4-one], the negative logarithm of the IC50 (pIC50) is more than 7.00 (class symbols) and 7.04 (numeric values). The corresponding values for `CCc1ncccc1-n1c(=O)c2ncn(C)c2c2ccc(C(F)(F)F)nc21` (single isomer, unassigned) [Compound 67-P2, 5-(2-ethylpyridin-3-yl)-1-methyl-7-(trifluoromethyl)-1,5-dihydro-4H-imidazo[4,5-c][1,8]naphthyridin-4-one] are more than 7.00 and 7.38. As to `C#Cc1cccc(-n2c(=O)c3ncn(C)c3c3ccc(C(F)(F)F)nc32)c1Cl` (single isomer, unassigned) [Compound 80-P2, 5-(2-chloro-3-ethynylphenyl)-1-methyl-7-(trifluoromethyl)-1,5-dihydro-4H-imidazo[4,5-c][1,8]naphthyridin-4-one], the pIC50 is, setting by setting: (class symbols) more than 7.00; (numeric values) 7.49. For the compound `O=c1c2ncoc2c2ccc(C(F)(F)F)cc2n1-c1cccnc1C1CC1` (single isomer, unassigned) [Compound 85-P2, 5-(2-cyclopropylpyridin-3-yl)-7-(trifluoromethyl)oxazolo[4,5-c]quinolin-4(5H)-one], the pIC50 is more than 7.00 (class symbols) and 7.47 (numeric values). On to `O=c1c2ncoc2c2ccc(C(F)(F)F)nc2n1-c1cccnc1C(F)(F)F` (single isomer, unassigned) [Compound 86-P2, 7-trifluoromethyl-5-(2-trifluoromethylpyridin-3-yl)oxazolo[4,5-c][1,8]naphthyridin-4(5H)-one], for which the pIC50 is more than 7.00 (class symbols) and 7.60 (numeric values). With `O=c1c2ncn(C(F)F)c2c2ccc(Cl)cc2n1-c1cccnc1C1CC1` (single isomer, unassigned) [Compound 87-P2, 7-chloro-5-(2-cyclopropylpyridin-3-yl)-1-difluoromethyl-1,5-dihydro-4H-imidazo[4,5-c]quinolin-4-one], the pIC50 (class symbols) was more than 7.00 and the pIC50 (numeric values) was 7.41. The matching figures for `O=c1[nH]c2c(=O)n(-c3ccccc3Cl)c3nc(C(F)(F)F)ccc3c2[nH]1` [Compound 4, 5-(2-chlorophenyl)-7-(trifluoromethyl)-3,5-dihydro-1H-imidazo[4,5-c][1,8]naphthyridine-2,4-dione]: more than 7.00 and 7.16. On to `O=c1c2cn[nH]c2c2ccc(C(F)(F)F)nc2n1-c1ccccc1Cl` [Compound 7, 5-(2-chlorophenyl)-7-(trifluoromethyl)-1,5-dihydro-4H-pyrazolo[4,3-c][1,8]naphthyridin-4-one], for which the pIC50 is 6.30 to 7.00 (class symbols) and 6.89 (numeric values). With `O=c1c2ncoc2c2ccc(C(F)(F)F)nc2n1-c1ccccc1Cl` [Compound 8, 5-(2-chlorophenyl)-7-(trifluoromethyl)oxazolo[4,5-c][1,8]naphthyridin-4(5H)-one], the negative-log IC50 (pIC50) is more than 7.00 (class symbols) and 7.19 (numeric values).

For the compound `CCOc1ccc2c3[nH]c(=O)[nH]c3c(=O)n(-c3ccc(OC(F)F)cc3)c2n1` [Compound 10, 5-(4-(difluoromethoxy)phenyl)-7-ethoxy-3,5-dihydro-1H-imidazo[4,5-c][1,8]naphthyridine-2,4-dione], the pIC50 (class symbols) is more than 7.00 and the pIC50 (numeric values) was 7.48. Regarding `CCOc1ccc2c3[nH]c(OC)nc3c(=O)n(-c3ccc(OC(F)F)cc3)c2n1` [Compound 11, 5-(4-(difluoromethoxy)phenyl)-7-ethoxy-2-methoxy-1,5-dihydro-4H-imidazo[4,5-c][1,8]naphthyridin-4-one], the pIC50 is, setting by setting: (class symbols) more than 7.00; (numeric values) 7.25. On to `Cn1cc2c(n1)c(=O)n(-c1ccc(OC(F)F)cc1)c1nc(C(F)(F)F)ccc21` [Compound 12, 5-(4-(difluoromethoxy)phenyl)-2-methyl-7-(trifluoromethyl)-2,5-dihydro-4H-pyrazolo[3,4-c][1,8]naphthyridin-4-one], for which the pIC50 reads like this: (class symbols) 6.30 to 7.00; (numeric values) 6.99. For the compound `CCOc1ccc2c3cn(C)nc3c(=O)n(-c3ccc(OC(F)F)cc3)c2n1` [Compound 13, 5-(4-(difluoromethoxy)phenyl)-7-ethoxy-2-methyl-2,5-dihydro-4H-pyrazolo[3,4-c][1,8]naphthyridin-4-one], the negative logarithm of the IC50 (pIC50) runs as follows: (class symbols) 6.30 to 7.00; (numeric values) 6.91.

`CCOc1ccc2c3c(ncn3C)c(=O)n(-c3ccc(OC(F)F)cc3)c2n1` [Compound 14, 5-(4-(difluoromethoxy)phenyl)-7-ethoxy-1-methyl-1,5-dihydro-4H-imidazo[4,5-c][1,8]naphthyridin-4-one]: the pIC50 reads like this: (class symbols) more than 7.00; (numeric values) 7.33. As to `Cn1cnc2c(=O)n(-c3ccc(OC(F)F)cc3)c3nc(C(F)(F)F)ccc3c21` [Compound 15, 5-(4-(difluoromethoxy)phenyl)-1-methyl-7-(trifluoromethyl)-1H-imidazo[4,5-c][1,8]naphthyridin-4(5H)-one], the pIC50 reads like this: (class symbols) more than 7.00; (numeric values) 7.41. The matching figures for `O=c1c2ncoc2c2ccc(C(F)(F)F)nc2n1-c1ccc(OC(F)F)cc1` [Compound 16, 5-(4-(difluoromethoxy)phenyl)-7-(trifluoromethyl)oxazolo[4,5-c][1,8]naphthyridin-4(5H)-one]: 6.30 to 7.00 and 6.91.

Regarding `O=c1c2ocnc2c2ccc(C(F)(F)F)nc2n1-c1ccc(OC(F)F)cc1` [Compound 18, 5-(4-(difluoromethoxy)phenyl)-7-(trifluoromethyl)oxazolo[5,4-c][1,8]naphthyridin-4(5H)-one], the negative logarithm of the IC50 (pIC50) runs as follows: (class symbols) 6.30 to 7.00; (numeric values) 6.36. As for `Cn1cnc2c(=O)n(-c3ccc(Cl)cc3)c3nc(C(F)(F)F)ccc3c21` [Compound 19, 5-(4-chlorophenyl)-1-methyl-7-(trifluoromethyl)-1,5-dihydro-4H-imidazo[4,5-c][1,8]naphthyridin-4-one], the pIC50 by setting is: (class symbols) more than 7.00; (numeric values) 7.29. The matching figures for `Cn1cnc2c(=O)n(-c3ccccc3)c3nc(C(F)(F)F)ccc3c21` [Compound 21, 1-methyl-5-phenyl-7-(trifluoromethyl)-1,5-dihydro-4H-imidazo[4,5-c][1,8]naphthyridin-4-one]: more than 7.00 and 7.19.

As for `Cn1cnc2c(=O)n(-c3cccc(Cl)c3)c3nc(C(F)(F)F)ccc3c21` [Compound 22, 5-(3-chlorophenyl)-1-methyl-7-(trifluoromethyl)-1,5-dihydro-1H-imidazo[4,5-c][1,8]naphthyridin-4-one], for the setting “class symbols”, the pIC50 was 6.30 to 7.00. Take `Cn1cnc2c(=O)n(-c3ccccc3F)c3nc(C(F)(F)F)ccc3c21` [Compound 23, 5-(2-fluorophenyl)-1-methyl-7-(trifluoromethyl)-1,5-dihydro-4H-imidazo[4,5-c][1,8]naphthyridin-4-one]: the pIC50 reads like this: (class symbols) more than 7.00; (numeric values) 7.10. The corresponding values for `Cn1cnc2c(=O)n(-c3c(F)cccc3Cl)c3nc(C(F)(F)F)ccc3c21` [Compound 26, 5-(2-chloro-6-fluorophenyl)-1-methyl-7-(trifluoromethyl)-1,5-dihydro-4H-imidazo[4,5-c][1,8]naphthyridin-4-one] are 6.30 to 7.00 and 6.87.

Source of the values: patent publication US20240124454A1, “TRICYCLIC COMPOUND AND USE THEREOF” (NANJING ZAIMING PHARMACEUTICAL CO., LTD., priority 2020, published 2024).
